Data from patent US20240180881A1, “METHODS FOR DECREASING RESISTANCE TO CHEMOTHERAPY” (National Institute of Immunology, priority 2022, published 2024).

Legend:
[1] = target: T1, BLM-RAD54 interaction (BLM F2 and N-RAD54 F1) (Homo sapiens, UniProt Q92698); assay: Renilla luciferase-based protein complementation assay (PCA); format: cell-based; settings: disruption of BLM F2 / N-RAD54 F1 interaction, HEK293T cells, 1 nM to 100 μM; read-out: EC50
T1 construct: expressed in transfected cells; host or cells: HEK293T
T1 sequence (Q92698 1-212): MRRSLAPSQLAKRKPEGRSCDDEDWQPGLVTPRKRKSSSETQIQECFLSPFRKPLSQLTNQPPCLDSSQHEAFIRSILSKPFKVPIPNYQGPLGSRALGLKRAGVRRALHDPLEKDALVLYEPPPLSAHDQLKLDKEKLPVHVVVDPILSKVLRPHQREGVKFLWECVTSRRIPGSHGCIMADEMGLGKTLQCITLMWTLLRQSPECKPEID
Procedure: Specifically, N-RAD54-F1, C-RAD54-F1, BLM-F1 and BLM-F2 were transfected in HEK293T. Forty-eight hours post-transfection, Renilla luciferase-based PCA were carried out with the indicated combination of the expressed proteins. The experiment was repeated three times. Mean±S.D.
Using the Renilla luciferase-based protein complementation assay described earlier, 1280 FDA/EMA approved small molecules present in Prestwick chemical library were screened for their ability to disrupt BLM-RAD54 interaction. Each of the small molecules was incubated with HEK293T cells expressing BLM-F2 and N-RAD54-F1. Compared to cells expressing only BLM-F2 and N-RAD54-F1, the decrease in Renilla luciferase intensity in presence of each small molecule was monitored. Percentage disruption of the interaction between BLM F2 and N-RAD54 F1 was plotted in form of heatmap. The disruption of the BLM-RAD54 interaction was determined by a decrease in the Renilla luciferase activity as compared to control untreated cells.
The percentage disruption of the interaction between BLM F2 and N-RAD54 F1 was plotted as a non-linear regression line. The data was from three independent experiments.
Renilla Luciferase (Rlu) based Protein complementation assay was carried out as described in (Stefan et al., 2007). For preliminary screening of the Prestwick Chemical Library (containing 1280 FDA/EMA approved small molecules), HEK293T cells were seeded in the 6-well plates a day prior to the transfection. Next day the cells were transfected by 2 μg each of pcDNA3.1 N-RAD54 F1, pcDNA3.1 C-RAD54 F1, pcDNA3.1 BLM F1, pcDNA3.1 BLM F2 plasmids (alone or in different combinations) using Lipofectamine 2000 (according to the manufacturer's protocol). 36 hours post-transfection, approximately […] cells were seeded in a 96-well plate and incubated at 37° C. for 2 hour with or without 10 μM of the 1280 small molecules present in the library. 10 μM of Coenleterazine h was added into each well and Rluc activity was monitored for the first 10 seconds in Varioskan Microplate Reader (Thermo Fisher Scientific). The validation screen was performed with 17 small molecules at 100 μM, 10 μM, 1 μM, 100 nM, 10 nM and 1 nM concentrations. The percentage reduction in the protein-protein interaction was then calculated as compared to the control wells (without any small molecule).

[2] = target: T2, RAD54 chromatin remodeling activity (Homo sapiens, UniProt Q92698); assay: REA assay on chromatinized MRP2 array; format: biochemical; settings: 180 nM peptide, +ATP
T2 construct: GST RAD54 (1-747) (WT), GST BLM (1-1417) (WT), His RAD54 (1-747) (WT); made in house; host or cells: E. coli BL-21 DE3
T2 sequence (Q92698 1-747): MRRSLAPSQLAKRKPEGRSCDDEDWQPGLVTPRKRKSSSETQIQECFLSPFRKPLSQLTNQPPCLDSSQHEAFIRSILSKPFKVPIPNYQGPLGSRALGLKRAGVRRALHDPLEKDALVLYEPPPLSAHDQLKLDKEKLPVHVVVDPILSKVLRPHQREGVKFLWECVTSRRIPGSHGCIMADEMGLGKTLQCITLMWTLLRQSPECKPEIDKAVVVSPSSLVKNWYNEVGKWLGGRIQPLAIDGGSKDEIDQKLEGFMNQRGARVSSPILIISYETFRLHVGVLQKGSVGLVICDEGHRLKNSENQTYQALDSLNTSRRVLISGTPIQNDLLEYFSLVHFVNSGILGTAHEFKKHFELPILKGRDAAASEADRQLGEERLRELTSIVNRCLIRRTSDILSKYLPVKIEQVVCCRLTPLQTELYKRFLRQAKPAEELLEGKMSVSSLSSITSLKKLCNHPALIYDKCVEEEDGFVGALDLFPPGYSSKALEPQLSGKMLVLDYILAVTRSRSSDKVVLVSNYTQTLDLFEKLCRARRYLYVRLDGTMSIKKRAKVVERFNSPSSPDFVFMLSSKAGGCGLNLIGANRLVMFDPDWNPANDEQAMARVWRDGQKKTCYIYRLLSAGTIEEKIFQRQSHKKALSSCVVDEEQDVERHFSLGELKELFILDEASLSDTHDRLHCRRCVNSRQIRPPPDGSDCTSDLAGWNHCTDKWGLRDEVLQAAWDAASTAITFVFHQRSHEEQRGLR
Source text: (§1) The data was from three independent experiments.
as §1
(§2) The data is from three independent experiments.

His-RAD54 WT = target: T3, His-RAD54 WT (Homo sapiens, UniProt Q92698); assay: Tryptophan fluorescence assay; format: binding; settings: increasing amount of peptide
T3 construct: made in house; host or cells: E. coli BL-21 DE3
T3 sequence (Q92698 1-747): T2 sequence (Q92698 1-747)
Procedure: To determine how BLM peptide affects ATP binding and hydrolysis, tryptophan fluorescence assays were carried out using full-length recombinant RAD54 in presence of either BLM_peptide or SCM_peptide (FIG. 2H). Tryptophan fluorescence assays were carried out with RAD54 WT alone or RAD54 WT in presence of the indicated concentrations of either BLM_peptide (upper panel) or SCM_peptide (lower panel). The experiment was repeated three times and one representative experiment has been shown.
RAD54 fluorescence was measured in a fluorometer.
Tryptophan fluorescence measurements were performed on a Fluoromax Spectrofluorimeter (Horiba-Jobin Yvon Fluoromax 4). Recombinant His-RAD54 (500 nM) was excited at 280 nm and the emission intensity monitored at regular intervals from 295 nm to at least 450 nm.

RAD54 = target: T4, RAD54 (Homo sapiens, UniProt Q92698); assay: ATP binding assay; format: biochemical; settings: 180 nM peptide
T4 construct: GST RAD54 (1-747) (WT); made in house; host or cells: E. coli BL-21 DE3
T4 sequence (Q92698 1-747): T2 sequence (Q92698 1-747)
Procedure: The quantitation of the ATP binding assay was carried out using RAD54 WT, RAD54 WT+BLM_peptide, and RAD54 WT+SCM_peptide. The data is from three independent experiments. Mean±S.D.
(§3) The presence of the disruptors also led to a decrease in the ATP binding to RAD54.
A 20 μl reaction was set up with 120 nM of GST-RAD54 and 180 nM of either BLM_peptide or SCM_peptide or BLM (1-212) using 4 μl of 5×ATP binding assay buffer (100 mM Tris-Cl pH 7.5, 50 mM MgCl2, 10 mM MnCl2, 5 mM DTT) and 5 μCi of [γ^32P]dATP. […] Reactions were incubated at 30° C. for 20 minutes and were stopped with 10% TCA and samples were spotted on P81 phosphocellulose paper followed by washing of paper strips with 75 mM orthophosphoric acid. A minimum of 8 washes were given in 20 hrs of 1 hr each including a 12 hr wash. Following this, strips were dehydrated in ethanol for 10 min followed by liquid scintillation counting. Reactions without the substrate were spotted as control and the same process repeated.

RAD54 ATPase activity = target: T5, RAD54 ATPase activity (Homo sapiens, UniProt Q92698); assay: ATPase assay; format: biochemical; settings: peptide gradient 180 nM, 360 nM, 540 nM
T5 construct: made in house; host or cells: E. coli BL-21 DE3
T5 sequence (Q92698 1-747): T2 sequence (Q92698 1-747)
Procedure: The data is from three independent experiments. Mean±S.D.
as §3
Assay for RAD54 ATPase activity was carried out as per the previously published protocol (Srivastava et al., 2009). His-RAD54 (120 nM) was incubated with the GST-BLM (1-212) or BLM_peptide or SCM_peptide (180 nM). […] 1 μl of the sample was spotted on the polyethyleneimine-coated TLC plate, resolved in 1M Formic Acid and 0.3M LiCl. The products of ATP hydrolysis were then visualized by Phosphoimager scans taken in Typhoon™ laser-scanner platform (Cytiva) and quantitated using the inbuilt software.

[3] = target: T2, RAD54 chromatin remodeling activity; assay: Restriction enzyme accessibility (REA) assay on chromatinized G5E4 array; format: biochemical; settings: 180 nM peptide, +ATP
Source text: as §2, §2

Molecule | EC50 [1] | other results
Cc1cnc(C(=O)NCCc2ccc(S(=O)(=O)NC(=O)NC3CCCCC3)cc2)cn1 [C13, Glipizide] | 6.75 ± 3.69 nM | 
BLM_peptide: BLM (181-212) peptide, sequence STAQKSKKGKRNFFKAQLYTTNTVKTDLPPPS |  | RAD54 mediated remodeling activity, fraction uncut [2]: enhanced RAD54 mediated remodeling activity on MRP2 substrate; tryptophan fluorescence of RAD54 (His-RAD54 WT): progressively enhanced fluorescence quenching; binding of ATP to RAD54 (RAD54): enhanced the binding of ATP to RAD54; ATPase activity of RAD54 (RAD54 ATPase activity): increased the ATPase activity of RAD54; chromatin remodeling activity of RAD54, fraction uncut [3]: enhance the chromatin remodeling activity of RAD54, to the same extent as BLM (1-212)
Nc1nc2nn[nH]c2c(=O)[nH]1 [C1, Azaguanine-8] | 22.3 ± 1.98 nM | 
Cc1ncc([N+](=O)[O-])n1CCO [C8, Metronidazole] | 20.5 ± 2.61 nM | 
Oc1c(Cl)cc(Cl)c2cccnc12 [C16, Chloroxine] | 26.4 ± 2.28 nM | 
COc1c2occc2c(OC)c2c(=O)cc(C)oc12 [C9, Khellin] | 16.7 ± 1.26 nM | 
